{"source": "paper PMC5007476", "about": "“Use of cross-reactivity immunoassay to orient insulin replacement in diabetic patients with high levels of insulin antibodies” (MethodsX, 2016)", "key": {"[1]": {"system": "insulin antibodies (IA) in patient serum", "experiment": "Displacement radioimmunoassay (RIA) for affinity and cross-reactivity of insulin antibodies in patient serum", "type": "binding, human", "conditions": "for Selectivity (S = KL/KCi): at start of study, KL = K0 of regular human insulin, KCi = K0 of the competitor analog; for K0, average (median) affinity constant: at start of study (before change of insulin), patient serum 30 μL, duplicates, 5 days at 4 °C (near equilibrium), tracer mono [^125I A14] insulin ~20,000 cpm (5.8 × 10^−11 M), competitor 1 × 10^−9 to 10^−6 M", "procedure": "The homogeneous mono [^125I A14]\nFor in vitro cross-reactivity assessment a displacement RIA was applied by using the tracer described above. Briefly, duplicate 30 μL serum samples from the patient were incubated during 5 days at 4 °C (near equilibrium) with a constant amount of tracer (∼20,000 cpm). […] Insulin analogs were engineered to enhance desired molecular properties without altering immunogenicity, at least in theory. However, since the amino acid sequence of these insulin variants were changed to alter its absorption, distribution, metabolism and excretion characteristics, some residual capacity to elicit specific antibodies must be expected. […] Also the grade of alteration of the natural insulin molecule is of importance.\nIn order to express the degree of cross reactivity of IA induced by the initial insulin formulation (¨Ligand̈, L), against a panel of slow or fast action insulin analogs as described above (Competitors̈, Ci), the parameter selectivity (S), as defined elsewhere (Berzofsky and Schechter; Berzofsky et al.), was employed. Approximate values for average (median) affinity (K0) for L and those from each Ci, were obtained from the plots of B/F signals as a function of each competitor concentration, interpolating in the abscissa axis the respective doses corresponding to the maximum/2 signal [(B/F)0/2] (Graphical abstract, RIA plot). Alternatively, a best fit to the true affinity constants was obtained by representing B/F signals for each ligand as a function of free tracer (F) calculated by the formula: F = [C/(1 + B/F)]. It is important to emphasize that the molar concentration of the tracer in the test must be lower than the inverse of K0 value. This condition precludes the preparation of the respective labeled competitors to perform specific single RIAs for each homologous ligand. (Berzofsky and Schechter). In the RIA the concentration of tracer was 5.8 × 10^−11 M (see Preparation of the homogeneous tracer mono [^125I A14] Insulin) and K0 values for IA (ranging 10^6–10^8 M^−1) were obtained from previous work of our laboratory (Trabucchi et al.; Trabucchi et al.).\nFinally, the respective Selectivity ratios were obtained using the expression: Si = KL/KCi."}, "[2]": {"system": "serum albumin", "conditions": "background, no reference given; cited from earlier work", "source_text": "(§1) Detemir is an insulin analog in which a fatty acid (myristic acid) is bound to the lysine amino acid at position B29. […] Accordingly, its persistence as a potential antigen in circulation must not be ruled out. Glargine was created by modifying three amino acids. […] In order to avoid ..."}, "[3]": {"conditions": "cited from earlier work", "source_text": "as §1, with “... || Glulisine is a rapid-acting insulin analog that differs from human insulin in that the amino acid asparagine at position B3 is replaced by lysine and the lysine in position B29 is replaced by glutamic acid.” for “...”"}, "[4]": {"conditions": "background, no reference given, cited from earlier work", "source_text": "as §1"}, "[5]": {"experiment": "Metabolic control of the patient (glycaemia, HbA1c) under insulin treatment", "type": "in vivo, human"}, "[6]": {"system": "anti-insulin antibodies (IA)", "description": "Insulin used as a tracer for both radiometric methods, RBA and RIA, was produced using recombinant human insulin (HumulinC from Eli Lilly, Indiana, USA) devoid of preservative substances by chromatography on a Sephadex G25 column (Amersham Biosciences, New Jersey, USA). The labeling and HPLC purification steps were carried out following as indicated by Linde et al. [3] and Jørgensen et al. [4], respectively. Specific radioactivity of roughly 300–380 μCi/μg was routinely achieved.\nThe concentration of tracer in both, RBA and RIA, was 5.8 × 10^−11, calculated from an activity of 20,000 cpm; Relative mass of insulin, 5808 Da; Final incubation volume, 0,12 mL; Gamma counter efficiency, 70%; Specific activity of fresh insulin tracer, 380 μCi/μg.\nRadioligand binding assay for IA assessment, performed routinely as official analysis service at IDEHU-CONICET laboratory, was based on the original procedure indicated by Kurtz et al. [5] and carried out essentially as previously described by Stumpo et al. [6]. […] Results were expressed as specific insulin binding percentage B% = Bwi% (preincubated without cold insulin) – Bie% (preincubated with excess cold insulin). Reproducibility was assessed at different binding levels. […]"}, "[7]": {"conditions": "effect of the sequence modification; background, no reference given; cited from earlier work", "source_text": "(§2) Lispro was engineered through recombinant DNA technology so that the penultimate lysine and proline residues on the C-terminal end of the B-chain were reversed. […] This allowed larger amounts of active monomeric insulin to be available for postprandial (after meal) injections. Similar to Glulisine, the monomeric state of Lispro theoretically may diminish the chance of phagocytosis by cells of the Immune System resulting in lower immunogenicity."}, "[8]": {"system": "insulin receptor", "conditions": "effect of the sequence modification; background, no reference given; cited from earlier work", "source_text": "as §2"}, "[9]": {"conditions": "after 6 months of Glulisine 0,6 IU/Kg/day by pump infusion"}, "[10]": {"conditions": "before change, more than 3 IU/kg/day NPH human insulin complemented with crystalline human insulin"}}, "note": "Like-named read-outs stand apart in the source and are kept apart here."}
{"substance": "Detemir", "values": [{"measurement": "Selectivity (S = KL/KCi)", "setting": "[1]", "result": "~1"}, {"measurement": "affinity for serum albumin (in words)", "setting": "[2]", "result": "high affinity for serum albumin"}, {"measurement": "duration/onset of action (in words)", "setting": "[3]", "result": "increasing its duration of action"}]}
{"substance": "Glargine", "values": [{"measurement": "K0, average (median) affinity constant", "setting": "[1]", "result": "2.1e+07", "unit": "M⁻¹"}, {"measurement": "Selectivity (S = KL/KCi)", "setting": "[1]", "result": 37.6}, {"measurement": "solubility at physiological pH (in words)", "setting": "[4]; physiological pH", "result": "less soluble at a physiological pH"}, {"measurement": "isoelectric point", "setting": "[4]; shifted from 5.4 by two added arginine residues", "result": 6.7}, {"measurement": "solubility at slightly acidic pH (in words)", "setting": "[4]; slightly acidic pH", "result": "more soluble at a slightly acidic pH"}, {"measurement": "duration/onset of action (in words)", "setting": "[3]; background, no reference given", "result": "prolonged action when compared with biosynthetic human insulin"}]}
{"substance": "Glulisine", "values": [{"measurement": "K0, average (median) affinity constant", "setting": "[1]", "result": "1e+06", "unit": "M⁻¹"}, {"measurement": "Selectivity (S = KL/KCi)", "setting": "[1]", "result": 790}, {"measurement": "IA binding rate compared with regular human insulin", "setting": "[1]; in vitro, at the same doses, start of study", "result": "1/790"}, {"measurement": "HbA1c", "setting": "[5]; [9]", "result": 7.6, "unit": "%"}, {"measurement": "HbA1c (IFCC)", "setting": "[5]; [9]", "result": 60, "unit": "mmol/mol"}, {"measurement": "metabolic control (in words)", "setting": "[5]; [9]", "result": "recovered metabolic control"}, {"measurement": "change of B% signal (in words)", "setting": "[6]", "result": "significant decrease in B% signal"}, {"measurement": "duration/onset of action (in words)", "setting": "[3]; background, no reference given", "result": "rapid-acting"}]}
{"substance": "Lispro", "values": [{"measurement": "K0, average (median) affinity constant", "setting": "[1]", "result": "1.96e+07", "unit": "M⁻¹"}, {"measurement": "Selectivity (S = KL/KCi)", "setting": "[1]", "result": 40.3}, {"measurement": "K0, affinity constant", "setting": "[1]; control RIA on serum sample after 14 months (of Glulisine treatment)", "result": "3.4e+07", "unit": "M⁻¹"}, {"measurement": "formation of insulin dimers and hexamers (in words)", "setting": "[7]", "result": "blocked the formation of insulin dimers and hexamers"}, {"measurement": "insulin receptor binding (in words)", "setting": "[8]", "result": "did not alter the insulin receptor binding"}]}
{"substance": "NPH human insulin: NPH human insulin (Humulin – Eli Lilly) complemented with crystalline human insulin", "values": [{"measurement": "HbA1C", "setting": "[5]; [10]", "result": 11, "unit": "%"}, {"measurement": "HbA1C (IFCC)", "setting": "[5]; [10]", "result": 97, "unit": "mmol/mol"}, {"measurement": "metabolic control (in words)", "setting": "[5]; before change, more than 3 IU/kg/day NPH human insulin complemented with crystalline human insulin, last two years", "result": "inadequate metabolic control"}]}
{"substance": "regular human insulin: unlabeled regular crystalline human insulin (Humulin, Eli Lilly)", "values": [{"measurement": "K0, average (median) affinity constant", "setting": "[1]", "result": "7.9e+08", "unit": "M⁻¹"}]}
